# Test results as given in patent publication US6214859A, “Ethylamine derivatives” (Fujimoto Brothers Co., Ltd., priority 1997, dated 2001).
# Where a name gives a salt, the structure may show the parent alone.
# Assays:
# [1] = Toxicity screening using primary cultured hepatocyte (LDH release); format: cell-based, rat; settings: rat, primary hepatocytes, 24 hr, control 0.5% saline or 0.5% DMSO, read-out: Percent control of LDH release
# Experimental: The hepatocytes was prepared from rat liver by collagenase perfusion method and suspension containing 5×10^5 cells/ml were prepared. After cultivation for 24 hr, the suspension was exchanged to the William's Medium E (GIBCO BRL) containing 10 or 100 μM of the compounds of this invention. After cultivation for 24 hr, the activity of lactate dehydrogenase (LDH) released in the medium was measured.
# [2] = system: rats reduced learning ability by tetrabenazine; test: Conditioned avoidance task in the shuttle box (tetrabenazine-treated rats); format: in vivo, rat; settings: tetrabenazine 1 mg/kg s.c., significance and direction
# Experimental: The method described in Life Sci., 58, 817-827 (1996) was used. The effects on conditioned avoidance reflex (CARs) was analyzed in the shuttle box using male and female rats (weighing 200-220 g) whose leaning abilities were reduced by treatment of tetrabenazine. The instrument was constructed, according to the device described in Psychopharmacologia 10, 1-5 (1966) by the Research Institute for Electrical Industry (Budapest, Hungary). The male and female rats (weighing 200-220 g) were trained to cross the berrier under the influence of a conditioned stimulus (CS) (light flash and buzzer sounds). […] And the performance which was not related to this condition was noted as an intersignal reaction (IR). The rats were trained with 100 trials per day for 5 days. One trial consisted of 15 sec intertrial interval. The saline solution of tetrabenazine was administered at a dose of 1 mg/kg subcutaneously before one hour prior to the test and then the solution of the compounds of this invention were administered at the doses of 1, 2, 2.5 and 5 mg/kg subcutaneously with the simultaneous administration of tetrabenazine. The nmbers of CARs, EFs and IRs were automatically counted and evaluated by multi-way analysis of variance (ANOVA).
# [3] = system: dopamine release, striatum; test: Release of biogenic amines from brain tissue: dopamine, striatum; format: in vivo, Wistar rats
# Experimental: (§1) The method described in Life Sci., 56, 611-620 (1995) was used. After Wistar rats were decapitated, appropriate brain samples, which were striatun, substantia nigra, tuberculum olfactorium, locus coeruleus and raphe, were removed quickly and soaked in oxygenated (95% O2 and 5% CO2) Krebs solution at 37° C. The composition of Krebs solution was as follows in […]: NaCl 111, KCl 4.7, CaCl2 2.5, MgSO4 1.64, NaHCO3 25, KH2 PO4 1.2, glucose 11, 50 mg/l ascorbic add and 20 mg/l EDTA-2 Na. The preparations, soaked in one organ bath, were as follows: 1) four pieces of striatum (each halved), 2) four pieces of substantia nigra, 3) four pieces of tuberculum olfactorium; 4) eight pieces of locus coeruleus; 5) eight pieces of raphe. After incubation of the appropriate tissue for 20 min, the Krebs solution was replaced, the tissue soaked for 20 min in Krebs solution dissolving the compounds of this invention and the amount of biogenic amine released during this period of time was estimate. The compounds of this invention and PPAP, control compound, were dissolved in saline and were administered subcutaneously before 30 min to removing brain sample. For measuring noradrenaline and dopamine, samples were purified on 60 mg alumina containing micro columns (BDH Chemicals Ltd.) according to the method described in J. Pharmacol. Exp. Ther., 138, 360-372 (1962) For measuring serotonin, samples were purified on 15 mg Sephadex G-10 micro columns (Pharmacia). Dopamine, noradrenaline and serotonin were determined by high performance liquid chromatography (Waters 746 data module) with electrochemical detection (Waters 460 electrochemical detector). Waters Resolve 5μ Spherical C18 3.9×150 mm column was used as separating column and triethylamine-phosphate buffer (pH 5.2), containing 200 mg/l octane sulfonate sodium and 18 mg/l EDTA-2 Na with 6% acetonitrile, was used as mobile phase. The release amount of appropriate amine was noted as nmol/g tissue released for 20 min. deference of means tested by Student's t-test and significant level was set at P<.05.
# [4] = system: dopamine release, substantia nigra; test: Release of biogenic amines from brain tissue: dopamine, substantia nigra; format: in vivo, Wistar rats
# Experimental: as §1
# [5] = system: dopamine release, tuberculum olfactorium; test: Release of biogenic amines from brain tissue: dopamine, tuberculum olfactorium; format: in vivo, Wistar rats
# Experimental: as §1
# [6] = system: noradrenaline release, locus coeruleus; test: Release of biogenic amines from brain tissue: noradrenaline, locus coeruleus; format: in vivo, Wistar rats
# Experimental: as §1
# serotonin release, raphe = test: Release of biogenic amines from brain tissue: serotonin, raphe; format: in vivo, Wistar rats
# Experimental: as §1
# human platelet MAO-B = molecular target: T1, human platelet MAO-B (Homo sapiens, UniProt P27338); test: biochemical; settings: 10^-5 M; read-out: Inhibition rate of MAO-B
# T1 construct: The suspension was used as enzyme for MAO activity assay in blood platelets; from tissue; host or cells: human blood platelets (frozen, thawed and sonicated platelet rich plasma)
# T1 sequence (P27338 1-520): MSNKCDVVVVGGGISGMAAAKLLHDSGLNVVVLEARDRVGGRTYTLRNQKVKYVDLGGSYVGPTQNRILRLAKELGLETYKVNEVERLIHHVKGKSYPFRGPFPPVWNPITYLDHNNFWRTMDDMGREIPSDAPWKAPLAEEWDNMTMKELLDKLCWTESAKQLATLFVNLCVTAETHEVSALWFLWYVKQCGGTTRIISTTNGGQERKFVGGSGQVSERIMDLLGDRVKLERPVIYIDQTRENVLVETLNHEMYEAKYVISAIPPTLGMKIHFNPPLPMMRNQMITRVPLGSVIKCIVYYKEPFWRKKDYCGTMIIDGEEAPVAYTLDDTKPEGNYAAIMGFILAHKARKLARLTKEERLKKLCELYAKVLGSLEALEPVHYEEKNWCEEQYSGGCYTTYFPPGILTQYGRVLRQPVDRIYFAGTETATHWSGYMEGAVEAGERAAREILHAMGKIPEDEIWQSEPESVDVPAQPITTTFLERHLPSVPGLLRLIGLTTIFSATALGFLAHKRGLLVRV
# Experimental: Human blood added with 3.8% citric acid was centrifuged at 950 rpm for 10 min and platelet rich plasma (PRP) was obtained. The residual blood cell was centrifuged at 3,000 rpm for 10 min and platelet poor plasma (PPP) was obtained. After blood platelets were measured from a part of PRP, PRP and PPP were frozen at -20° C. They were thawed and were sonicated to be dispersed and suspended when MAO activity was measured. The suspension was used as enzyme for MAO activity assay in blood platelets. In addition, almost all of MAO in blood platelets have been known to be B type.
# MAO-B activity was determined according to the method described in Biochem. Pharmacol., 14, 1684-1685 (1965). […] The mixture was incubated at 37° C. for 5 min. After 80 μl of PRP or PPP was added to it, the mixture was incubated at 37° C. for 20 min. Thereafter, 120 μl of substrate (0.33 mg/ml kynuramine dihydrobromide) was added thereto. After incubation at 37° C. for 30 min, 800 μl of 10% trichloroacetic acid were added to stop the reaction and the solution was centrifuged at 3,000 rpm for 10 min. To 1 ml of the supernatant, 2 ml of 1 N NaOH was added and fluorescence of the solution was measured at Ex 312 nm and Em 380 nm. PRP was prepared to 250,000 cell/μl as amounts of blood platelets with […] phosphate buffer solution and 4-hydroxyquinoline was used as standard for measurement.
smiles,measurement,setting,value
CCCC(Cc1ccc2ccccc2c1)NCC(C)(C)C (stereo not shown) [Compound No. 14],"activity at 24 h, 10 µM",[1],108 ± 4.18%
same,"activity at 24 h, 100 µM",[1],131 ± 7.08%
CCCNC(CCC)Cc1ccc2cc(OC)ccc2c1 (stereo not shown) [Compound No. 15],Condition Avoidance Reflex (CARs),[2]; 5 mg/kg s.c.,* .Arrow-up bold.
"CCCNC(CCC)Cc1cc2ccccc2s1.Cl (stereo not shown) [compound 38, 1-(2-Benzothienyl)-2-propylaminopentane Hydrochloride]",Escape Failures (EFs),[2]; 1 mg/kg s.c.,**** .dwnarw.
same,Condition Avoidance Reflex (CARs),[2]; 2.5 mg/kg s.c.,**** .Arrow-up bold.
same,Intersignal Reactions (IRs),[2]; 2.5 mg/kg s.c.,* .Arrow-up bold.
same,"Release of dopamine, striatum",[3]; 0.01 mg/kg s.c.,"7.9 ± 0.19 nmol/g tissue, for 20 min"
same,"Release of dopamine, substantia nigra",[4]; 0.01 mg/kg s.c.,"14.0 ± 0.23 nmol/g tissue, for 20 min"
same,"Release of dopamine, tuberculum olfactorium",[5]; 0.01 mg/kg s.c.,"11.5 ± 0.14 nmol/g tissue, for 20 min"
same,"Release of noradrenaline, locus coeruleus",[6]; 0.01 mg/kg s.c.,"3.6 ± 0.05 nmol/g tissue, for 20 min"
same,"Release of serotonin, raphe","serotonin release, raphe; 0.01 mg/kg s.c.","0.375 ± 0.02 nmol/g tissue, for 20 min"
"CCCNC(CCC)Cc1ccc2c(c1)OCCO2 (stereo not shown) [Compound No. 35, 1-(1,4-Benzodioxan-6-yl)-2-propylaminopentane Hydrochloride]","activity at 24 h, 10 µM",[1],103 ± 10.6%
same,"activity at 24 h, 100 µM",[1],147 ± 5.07%
CCCNC(CC)Cc1ccc2ccccc2c1 (stereo not shown) [Compound No. 10],"Release of dopamine, striatum",[3]; 1.00 mg/kg s.c.,"3.3 ± 0.22 nmol/g tissue, for 20 min"
same,"Release of dopamine, substantia nigra",[4]; 1.00 mg/kg s.c.,"6.2 ± 0.31 nmol/g tissue, for 20 min"
same,"Release of dopamine, tuberculum olfactorium",[5]; 1.00 mg/kg s.c.,"5.6 ± 0.35 nmol/g tissue, for 20 min"
same,"Release of noradrenaline, locus coeruleus",[6]; 1.00 mg/kg s.c.,"2.9 ± 0.15 nmol/g tissue, for 20 min"
same,"Release of serotonin, raphe","serotonin release, raphe; 1.00 mg/kg s.c.","0.603 ± 0.10 nmol/g tissue, for 20 min"
same,inhibition at 10 µM,human platelet MAO-B,37.2%
"CCCCNC(CCC)Cc1ccc2c(c1)OCO2.Cl (stereo not shown) [Compound No. 29, 1-(1,3-Benzodioxol-5-yl)-2-butylaminopentane Hydrochloride]",Condition Avoidance Reflex (CARs),[2]; 2.5 mg/kg s.c.,* .Arrow-up bold.
same,Condition Avoidance Reflex (CARs),[2]; 5 mg/kg s.c.,*** .Arrow-up bold.
same,Intersignal Reactions (IRs),[2]; 5 mg/kg s.c.,*** .dwnarw.
same,"activity at 24 h, 10 µM",[1],103 ± 6.02%
same,"activity at 24 h, 100 µM",[1],101 ± 2.94%
"CCCNC(CCC)Cc1csc2ccccc12.Cl (stereo not shown) [compound 39, 1-(3-Benzothienyl)-2-propylaminopentane Hydrochloride]",Escape Failures (EFs),[2]; 1 mg/kg s.c.,*** .dwnarw.
same,Condition Avoidance Reflex (CARs),[2]; 2.5 mg/kg s.c.,**** .Arrow-up bold.
same,Escape Failures (EFs),[2]; 2.5 mg/kg s.c.,**** .dwnarw.
same,"Release of dopamine, striatum",[3]; 0.01 mg/kg s.c.,"7.1 ± 0.15 nmol/g tissue, for 20 min"
same,"Release of dopamine, substantia nigra",[4]; 0.01 mg/kg s.c.,"12.0 ± 0.34 nmol/g tissue, for 20 min"
same,"Release of dopamine, tuberculum olfactorium",[5]; 0.01 mg/kg s.c.,"10.9 ± 0.25 nmol/g tissue, for 20 min"
same,"Release of noradrenaline, locus coeruleus",[6]; 0.01 mg/kg s.c.,"4.1 ± 0.15 nmol/g tissue, for 20 min"
same,"Release of serotonin, raphe","serotonin release, raphe; 0.01 mg/kg s.c.","0.256 ± 0.01 nmol/g tissue, for 20 min"
"CCCNC(CCC)Cc1ccc2c(c1)CCO2 (stereo not shown) [Compound No. 36, 1-(2,3-Dihydrobenzofuran-5-yl)-2-propylaminopentane Hydrochloride]","activity at 24 h, 10 µM",[1],101 ± 2.24%
same,"activity at 24 h, 100 µM",[1],111 ± 6.58%
"CCCNC(CCC)Cc1ccc2c(c1)CCC2.Cl (stereo not shown) [Compound No. 37, 1-(Indan-5-yl)-2-propylaminopentane Hydrochloride]",Condition Avoidance Reflex (CARs),[2]; 5 mg/kg s.c.,* .Arrow-up bold.
same,"activity at 24 h, 10 µM",[1],83.8 ± 5.65%
same,"activity at 24 h, 100 µM",[1],193 ± 8.51%
CCCC(Cc1ccc2c(c1)OCO2)NC(C)CC (stereo not shown) [Compound No. 30],Condition Avoidance Reflex (CARs),[2]; 5 mg/kg s.c.,**** .Arrow-up bold.
same,Intersignal Reactions (IRs),[2]; 5 mg/kg s.c.,* .dwnarw.
same,"activity at 24 h, 10 µM",[1],99.5 ± 5.44%
same,"activity at 24 h, 100 µM",[1],138 ± 4.57%
"CCCNC(CCC)Cc1cc2ccccc2[nH]1 (stereo not shown) [Compound No. 19, 1-(Indol-2-yl)-2-propylaminopentane Hydrochloride]","activity at 24 h, 10 µM",[1],82.4 ± 8.34%
same,"activity at 24 h, 100 µM",[1],180 ± 5.54%
"CCCC(Cc1ccc2c(c1)OCO2)Nc1ccc(C)cc1.Cl (stereo not shown) [Compound No. 33, 1-(1,3-Benzodioxol-5-yl)-2-p-toluidinopentane Hydrochloride]",Condition Avoidance Reflex (CARs),[2]; 5 mg/kg s.c.,* .Arrow-up bold.
same,Intersignal Reactions (IRs),[2]; 5 mg/kg s.c.,* .dwnarw.
same,"activity at 24 h, 10 µM",[1],94 ± 4.16%
same,"activity at 24 h, 100 µM",[1],152 ± 5.71%
"CCCNC(CCC)Cc1ccc2cc[nH]c2c1.Cl (stereo not shown) [compound 22, 1-(Indol-6-yl)-2-propylaminopentane Hydrochloride]",Condition Avoidance Reflex (CARs),[2]; 0.5 mg/kg s.c.,* .Arrow-up bold.
same,Condition Avoidance Reflex (CARs),[2]; 1 mg/kg s.c.,*** .Arrow-up bold.
same,Condition Avoidance Reflex (CARs),[2]; 5 mg/kg s.c.,**** .Arrow-up bold.
same,Escape Failures (EFs),[2]; 5 mg/kg s.c.,* .dwnarw.
same,"Release of dopamine, striatum",[3]; 0.01 mg/kg s.c.,"6.5 ± 0.06 nmol/g tissue, for 20 min"
same,"Release of dopamine, substantia nigra",[4]; 0.01 mg/kg s.c.,"11.9 ± 0.39 nmol/g tissue, for 20 min"
same,"Release of dopamine, tuberculum olfactorium",[5]; 0.01 mg/kg s.c.,"9.7 ± 0.17 nmol/g tissue, for 20 min"
same,"Release of noradrenaline, locus coeruleus",[6]; 0.01 mg/kg s.c.,"4.8 ± 0.05 nmol/g tissue, for 20 min"
same,"Release of serotonin, raphe","serotonin release, raphe; 0.01 mg/kg s.c.","0.322 ± 0.01 nmol/g tissue, for 20 min"
CCCC(Cc1ccc2c(c1)OCO2)NC(CC)CC (stereo not shown) [Compound No. 31],"activity at 24 h, 10 µM",[1],102.5 ± 0.84%
same,"activity at 24 h, 100 µM",[1],153 ± 4.35%
